Here are results for one compound from patent publication US20240415967A1, “DEGRADABLE NEAR-INFRARED PHOTOSENSITIZERS, PREPARATION METHODS, APPLICATIONS THEREOF” (BEIJING INSTITUTE OF COLLABORATIVE INNOVATION, priority 2021, published 2024).

For series [1], the system named is HeLa human cervical cancer cells. Nature of the series: Detection of cellular phototoxicity (CCK-8 cell viability). The following applies: 700 nm LED 2.5 mW/cm^2 for 10 min. The class given is cell-based. On the procedure: The cells used in the experiment were HeLa human cervical cancer cells. Cell culture was performed in a DMEM complete culture medium (purchased from Genye, 500 mL) supplemented with 10% inactivated fetal bovine serum (purchased from Shuohua, 500 mL) with 1% penicillin-streptomycin (purchased from Corning, 100 mL) at a temperature of 37° C. and an atmosphere of 5% carbon dioxide.
Sub-cultured Hela cells were digested by trypsin and dispersed in the culture medium at an appropriate concentration. […]
100 μL of PBS buffer was added to each well, and an irradiation condition was a 700 nm light-emitting diode lamp of 2.5 mW/cm^2 for 10 min. […] During this process, a monosodium salt of 2-(2-methoxy-4-nitrophenyl)-3-(4-nitrophenyl)-5-(2,4-disulfonate phenyl)-2H-tetrazolium (WST-8) in the CCK-8 reagent with an electron coupling reagent may be reduced to a water-soluble yellow formazan product by living cells, which causes an absorbance of the solution at 450 nm to vary, and values of variation may be proportional to a count of living cells. The variation of the absorbance at 450 nm of each well was measured using an enzyme labeling apparatus, and a cell viability at each incubation concentration was calculated according to a formula: […]

A short description of series [2]: UV-visible absorption and emission spectrum scanning (photophysical property). In kind it is physicochemical. As to conditions: light excitation, FIG. 8. On the procedure:
A UV-visible absorption spectrum scanning and an emission spectrum scanning were performed on the target product prepared in Embodiment 3, and the scanning results are shown in FIGS. 7 and 8. […] Therefore, the target product may include a deep tissue penetration depth in photodynamic therapy or in vivo fluorescence imaging.

Series [3] is described as follows: Detection of singlet oxygen with 1,3-diphenylisobenzofuran (DPBF) capture spectrophotometry. In kind it is physicochemical. The following applies: DPBF absorbance at 416 nm, 700 nm LED 1.25 mW/cm^2. The source says:
A phosphorescence emission of singlet oxygen was easily quenched by water molecules, and the singlet oxygen generated by the target product was detected by using chemical capture spectrophotometry. 1,3-diphenylisobenzofuran (DPBF) was one of the most commonly used singlet oxygen capture agents, and 1,3-diphenylisobenzofuran reacted with the singlet oxygen rapidly to generate a colorless substance, and a content of the singlet oxygen may be reflected by detecting a variation of an absorbance of the 1,3-diphenylisobenzofuran (DPBF) at a characteristic absorption peak (416 nm) using the UV-visible absorption spectrum. An irradiation condition was a 700 nm light-emitting diode (LED) lamp of 1.25 mW/cm^2, a characteristic absorption of the 1,3-diphenylisobenzofuran (DPBF) at the characteristic absorption peak of 416 nm was gradually weakened.

Series [4] in a line: Monitoring of self-degradation / photodegradation of the photosensitizer in solution (UV-vis, emission, HPLC). In kind it is physicochemical. On the procedure: In the test of Embodiment 7, an irradiation condition was the 700 nm light-emitting diode lamp of 1.25 mW/cm^2 for 0 min-2 min, the characteristic absorption of 1,3-diphenylisobenzofuran (DPBF) at the characteristic absorption peak of 416 nm was gradually weakened.
The target product obtained in Embodiment 3 was placed under a light-emitting diode lamp for irradiation, and an irradiation condition was 700 nm of 10 mW/cm^2, and the UV-visible absorption spectrum and an emission spectrum of the target product were recorded during irradiation.
As a control, the reference compound prepared in Embodiment 4 was placed under a light-emitting diode lamp for irradiation, the irradiation condition was 640 nm, 10 mW/cm^2, and the UV-visible absorption spectrum and the emission spectrum of the reference compound were recorded during irradiation.

A short description of series [5]: Photosensitization side effects of a photosensitizer at an animal level. In kind it is in vivo, BALB/C nude mice. As to conditions: 0.2 mg/kg subcutaneous, site irradiated 10 min (700 nm target product, 640 nm reference compound, 100 mW/cm^2), then simulated natural light 10 mW/cm^2 for 1 hour. On the procedure: All animal experiments in the in vivo experiments were performed in strict compliance with the Chinese regulations for animal experiments, using BALB/C nude mice, 5 weeks of age of the mouse, male, and a range of 16 g-25 g of body weight.
The mice were randomly grouped by number, and the experiment was divided into a target product group, a reference compound group, and an irradiation control group, with 3 mice in each group. Each of the mice was injected subcutaneously into an abdomen with 20 μL (0.2 mg/mL) of the target product, reference compound solution, or PBS solution, and an administered dose was 0.2 mg/kg. After the injection, a site of administration was irradiated, an irradiation condition of the target product was a 700 nm light-emitting diode lamp, and an irradiation condition of the reference compound was a 640 nm light-emitting diode lamp of 100 mW/cm^2, each of the mice was irradiated for 10 min, and no processing was performed in the irradiation control group. The state of the mouse was observed and a body temperature of the mouse was recorded with a thermal imager. Further, the three groups of mice were exposed to a simulated natural light of 10 mW/cm^2 and irradiated for 1 hour.

The nature of series [6]: Detection of superoxide anion free radicals with dihydroethidium (DHE) probe under irradiation. The following applies: water solution 10 μM, air atmosphere, 700 nm LED 1.25 mW/cm^2. In kind it is physicochemical. The method, then: Under an air atmosphere, dihydroethidium (DHE) was added to a water solution (10 μM) of the target product prepared in Embodiment 3 as a probe of superoxide anion free radicals, and an irradiation condition was a 700 nm light-emitting diode lamp of 1.25 mW/cm^2, a fluorescence of ethidium oxide generated by an oxidation of the DHE by the superoxide radicals was detected, and a fluorescence intensity enhanced with the increase of an irradiation time.

Series [7] relates to HeLa human cervical cancer cells. As to the kind of experiment: Medicine phototherapy at an animal level (subcutaneous tumor model). In kind it is in vivo, BALB/C nude mice. The following applies: 0.2 mg/kg in situ injection, 2 weeks. The method, then:
All animal experiments in the in vivo experiments were performed in strict compliance with the Chinese regulations for animal experiments using BALB/C nude mice, 5 weeks of age of the mouse, male, and a range of 16 g-25 g of body weight. Each mouse was subcutaneously inoculated with 100 uL of HeLa human cervical cancer cells in the right hind limb (5×10^6) to construct the tumor model, and the experiments were performed two weeks later.
Mice were randomly grouped by number, and the experiment was divided into an irradiation control group (including irradiation), a dark control group (including a target product; and a degradation product), and an experimental group (including target product+irradiation; and degradation product+irradiation), with six mice in each group. The dark control and experimental groups were administered by in situ injection, respectively: a dose of 0.2 mg/kg was administered, and 20 μL (0.2 mg/ml) of PBS solution of the target product or degradation product was injected in situ. After 30 min, the irradiation control and experimental groups were irradiated, and an irradiation condition was a 700 nm light-emitting diode lamp of 100 mW/cm^2, and 10 min of irradiation per mouse. The six mice were not given a light-avoidance process after therapy and were put into rearing cages to continue to feed, and every two days, a tumor volume was measured by vernier calipers and the body weight was weighed. The mice were therapized for 2 weeks.

`C[N+](C)(C)c1c(F)c(F)c(C2=C3C(=O)OC4=[N+]3[Zn]35[n]6c2ccc6-c2c(oc6c(F)c([N+](C)(C)C)c(F)c(F)c26)[N+]3=c2oc3c(F)c([N+](C)(C)C)c(F)c(F)c3c2=c2ccc([n]25)=C4c2c(F)c(F)c([N+](C)(C)C)c(F)c2F)c(F)c1F` (stereo not drawn) [target product]: the cellular phototoxicity entry in series [1] (0 μM-4 μM, FIGS. 16-17) is given as “relatively strong cellular phototoxicity under irradiation”. Besides, in series [1] (Homo sapiens, 24 h incubation, CCK-8, read-out: half-lethal concentration IC50), the IC50 was determined as 1000 nM. For the same compound, in series [2], the fluorescence spectrum region entry was “in the near-infrared region”. For the same compound, the “generation of singlet oxygen” value in series [3] is “ability to produce singlet oxygen under irradiation”. In addition, the “photodegradation process monitored by HPLC” value in series [4] (700 nm LED 2.5 mW/cm^2 for 0 min-10 min, FIG. 15) is “able to self-degrade and gradually be converted into the degradation product”. Further, in series [4] (700 nm LED 10 mW/cm^2, FIGS. 29-30), the “photodegradation in solution (absorption and emission spectra during irradiation)” value is “degraded under irradiation”. For the same compound, the “degradation under irradiation (characteristic absorption at 440 nm and 710 nm)” value in series [4] (700 nm LED 10 mW/cm^2 for 2 min-4 min, FIG. 13) is “degraded under irradiation”. Further, the “photodegradation rate as a function of irradiation intensity” value in series [4] (FIG. 14) was “accelerated with the increase in irradiation intensity”. Moreover, in series [5], the “body temperature after natural light (thermal imager)” value was “no significant variation” and the “reactions / photosensitization side effects after natural light” value is recorded as “did not exhibit abnormal reactions”. Besides, in series [6], the “generation of superoxide anion free radicals” value was “ability to generate the superoxide anion free radicals under irradiation”. The “body weight, with irradiation” value in series [7] (700 nm LED 100 mW/cm^2 10 min) is on record as “no significant weight loss”. Besides, the “tumor growth (tumor volume), with irradiation” value in series [7] (700 nm LED 100 mW/cm^2 10 min single irradiation) is listed as “effectively inhibited a growth of a subcutaneous tumor”. For the same compound, in series [7] (no irradiation), the “body weight, dark control” value is listed as “no significant weight loss” and the “tumor growth (tumor volume), dark control” value was “grows rapidly”.
